In patent US7531320B2, “Modulation of β-catenin/TCF-activated transcription” (priority 2003, dated 2009):

Tested on: cyclin D1
Assay: Real Time RT-PCR in SW480 cells, cyclin D1
Format: cell-based, human
Conditions: 25 μM; for ΔCT cyclin D1: relative to β-actin
Protocol: The RNeasy Midi Kit (Qiagen) was used for RNA extraction and Real Time RT-PCR was performed according to the protocol provided with the SYBR Green PCR Master Mix Kit (Perkin Elmer Biosystems, Shelton, Conn.). The primers used for cyclin D1, axin2, hnkd, c-myc, c-jun, and fra-1 amplifications were: cyclin D1 forward primer:5′-[…]-CCTGCTG-3′ (SEQ ID NO: 32) reverse primer: 5′-[…]-3′ (SEQ ID NO: 33) leading to a product size of approximately 300 bp; axin2 forward primer: 5′-[…] GGAAA-CT-3′ (SEQ ID NO: 34) and reverse primer: 5′-[…]-GAGA-3′ (SEQ ID NO: 35); hnkd forward primer: 5′-[…] TTGCGT-3′ (SEQ ID NO: 36) and the reverse primer: 5′-[…] ACGT-3′ (SEQ ID NO: 37); c-myc forward primer: 5′-GAA-[…] CTGC-3′ (SEQ ID NO: 38) and reverse primer: 5′-[…]-G-3′ (SEQ ID NO: 39); c-jun forward primer: 5′-[…]-3′ (SEQ ID NO: 40) and reverse primer: 5′-[…]-3′ (SEQ ID NO: 41); fra-1 forward primer: 5′-ACC-[…]-[…]-3′ (SEQ ID NO: 42) and reverse primer: 5′-[…]-TT-3′ (SEQ ID NO: 43). β-actin was used for normalization. […]
1 μg of mRNA, for each time point, was subjected to Real Time RT-PCR. Expression level of endogenous cyclin D1, c-myc, fibronectin, hnkd, axin2, c-jun, and BMP-4 were measured relative to β-actin. Quantitation of The ΔCycle of Threshold (CT) values was determined by subtracting the average values of each set by the corresponding average values obtained for β-actin. […]
The cyclin D1 gene is inappropriately expressed in many different tumor types, and is known to be a direct target of the Wnt/β-catenin pathway (Shtutman et al., “The cyclin D1 gene is a target of the beta-catenin/LEF-1 pathway,” Proc. Natl. Acad. Sci. USA 96:5522-27 (1999); Tetsu et al., “Beta-catenin regulates expression of cyclin D1 in colon carcinoma cells,” Nature 398:422-26 (1999)). […] Expression level of endogenous cyclin D1, c-myc, fibronectin, hnkd, axin2, c-jun, and BMP-4 were measured relative to β-actin. Quantitation of The ΔCycle of Threshold (CT) values was determined by subtracting the average values of each set by the corresponding average values obtained for β-actin. […]

With `O=C1C(Cc2ccc(O)cc2)N2C(=O)CCN(C(=O)NCc3ccccc3)C2CN1Cc1cccc2ccccc12` (stereo not drawn) [COMPOUND 1] the “mRNA cyclin D1 (direction)” value was “↓”, the “ΔCT cyclin D1” value (4 hours) was 0.6 and the “ΔCT cyclin D1” value (24 hours) was 3.1.
